US5256686A, “Phenylalkan(en)oic acid” (Ono Pharmaceutical Co., Ltd., priority 1989, dated 1993)

Tests used:
human PMNL LTB4 receptor = target: T1, human PMNL LTB4 receptor (Homo sapiens, UniProt Q15722); experiment: Binding affinity of 3H-LTB4 antagonist to human PMNL LTB4 receptor (inhibition of specific 3H-LTB4 binding); conditions: 1 nM 3H-LTB4, human PMNLs, 4° C., 20 min
T1 construct: endogenous in cells; host or cells: human polymorphonuclear leukocytes (PMNL), intact cells
Method: Human PMNLS (1×10^7 cells) were incubated with 1 nM ^3 H-LTB4 in Hanks balanced salt solution (1 ml) at 4° C. for 20 min. in the presence or absence of increasing concentrations of unlabeled LTB4 or various compounds. Free ^3 H-LTB4 was separated from PMNLs-bound ligands by vacuum filteration through Whatman GF/B or C glass fiber filters. The filters were then washed rapidly 4 times with 2.5 ml of the ice-cold phosphate buffered saline. The radioactivity retained in the filter was determined by liquid scintillation counting. Specific binding was defined as the difference between total binding and binding in the presence of 3 μM LTB4 (nonspecific binding). The inhibitory effect of specific ^3 H-LTB4 binding was calculated from the following equation.
The percentage of inhibition (%)=100-(B1 /B0 ×100)
B1 : specific ^3 H-LTB4 binding in presence of antagonist
B0 : specific ^3 H-LTB4 binding in absence of antagonist

Human PMNLs = experiment: Inhibition of human PMNLs aggregation (LTB4-induced); type: cell-based; conditions: PMNL, LTB4 10^-8 M solution, 3 min preincubation at 37° C., pH 7.4
Method: ii) Inhibition of Human PMNLs aggregation
The purified human PMNLs were suspended in Hank's-0.5% BSA medium (pH 7.4) at 1×10^7 cells/ml. The PMNLs suspentions (200 μl) were preincubated with varying concentrations of tasted compounds for 3 min at 37° C. prior to the addition of 10^-8 M solution ([…]) of LTB4 in Hank's solution. PMNLs aggregation in vitro was performed with a multichannel platelet aggregometer. Aggregation was detected as change in light transmission with an aggregometer.

[1] = Acute toxicity (LD50) in mouse; conditions: in vivo
Text: It was confirmed that the toxicity of the compounds, of the present invention were very low. […] Accordingly, it was confirmed that the compounds of the present invention were useful for pharmaceutical agent.

T1 sequence (Q15722 whole entry): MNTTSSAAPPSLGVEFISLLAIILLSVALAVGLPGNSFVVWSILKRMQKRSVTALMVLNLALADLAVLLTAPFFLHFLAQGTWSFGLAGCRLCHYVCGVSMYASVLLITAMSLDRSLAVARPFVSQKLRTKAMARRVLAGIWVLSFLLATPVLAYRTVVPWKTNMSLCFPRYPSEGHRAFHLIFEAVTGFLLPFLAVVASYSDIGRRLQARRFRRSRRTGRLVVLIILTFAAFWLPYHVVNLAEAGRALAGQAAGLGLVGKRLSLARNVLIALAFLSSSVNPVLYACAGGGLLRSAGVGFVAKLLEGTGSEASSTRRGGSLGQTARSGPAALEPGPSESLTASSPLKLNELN

| IC50 (human PMNL LTB4 receptor) [nM] | IC50 (Human PMNLs) [nM] | Compound | LD50 ([1]; intravenous administration) [mg/kg] | LD50 ([1]; oral administration) [mg/kg] |
| --- | --- | --- | --- | --- |
| 45 | 3600 | COc1ccc(/C=C/CCCCOc2ccc(NC(=O)CCCC(=O)N(C)C)cc2CCC(=O)O)cc1 [1 (a), 3-[1-[6-(4-methoxyphenyl)hex-5E-enyl]oxy-4-(4-dimethylaminocarbonylbutanamido)benzen-2-yl]propionic acid] | – | – |
| 20 | 3000 | COc1ccc(/C=C/CCCCOc2ccc(NC(=O)CCCC(=O)Nc3nccs3)cc2CCC(=O)O)cc1 [1 (o), 3-[1-[6-(4-methoxyphenyl)hex-5E-enyl]oxy-4-[4-(2-thiazolyl)aminocarbonylbutanamido]benzen-2-yl]propionic acid] | – | – |
| 20 | 7400 | COc1ccc(/C=C/CCCCOc2ccc(NC(=O)c3cccc(C(=O)O)c3)cc2CCC(=O)O)cc1 [2 (b), 3-[1-[6-(4-methoxyphenyl)hex-5E-enyl]oxy-4-(3-carboxylbenzamido)benzen-2-yl]propionic acid] | – | – |
| 45 | – | CCCCCCCCC(O)/C=C/CCCCOc1ccc(N2C(=O)CCCS2(=O)=O)cc1CCC(=O)O (stereo not drawn) [Example 13, 3-[1-(5E-7-hydroxy-n-pentadecenyl)oxy-4-(perhydro-1,2-thiazin-1,1,3-trione-2-yl)benzen-2-yl]propionic acid] | – | – |
| 90 | 7000 | COc1ccc(/C=C/CCCCOc2ccc(OCCCCC(=O)N(C)C)cc2CCC(=O)O)cc1 [Example 16, 3-[1-[6-(4-methoxyphenyl)hex-5E-enyl]oxy-4-(4-dimethylaminocarbonyl-n-butyl)oxybenzen-2-yl]propionic acid] | – | – |
| 25 | – | COc1ccc(/C=C/CCCCOc2ccc(CCCCC(=O)N(C)C)cc2CCC(=O)O)cc1 [Example 18, 3-[1-[6-(4-methoxyphenyl)hex-5E-enyl]oxy-4-(4-dimethylaminocarbonylbutyl)benzen-2-yl]propionic acid] | – | – |
| 30 | – | COc1ccc(/C=C/CCCCOc2ccc(C(=O)CCCC(=O)N(C)C)cc2CCC(=O)O)cc1 [Example 19, 3-[1-[6-(4-methoxyphenyl)hex-5E-enyl]oxy-4-(1-oxo-4-dimethylaminocarbonylbutyl)benzen-2-yl]propionic acid] | – | – |
| 3.6 | 2000 | COc1ccc(/C=C/CCCCOc2ccc(C(O)CCCC(=O)N(C)C)cc2CCC(=O)O)cc1 (stereo not drawn) [Example 20, 3-[1-[6-(4-methoxyphenyl)hex-5E-enyl]oxy-4-(1-hydroxy-4-dimethylaminocarbonylbutyl)benzen-2-yl]propionic acid] | – | – |
| 18 | – | CCCCCCCCC(O)/C=C/CCCCOc1cccc(OCCCCC(=O)N(C)C)c1CCC(=O)O (stereo not drawn) [Example 29, 3-[1-(5E-7-hydroxypentadecenyl)oxy-3-(4-dimethylaminocarbonylbutyl)oxybenzen-2-yl]propionic acid] | – | – |
| 40 | 6000 | COc1ccc(/C=C/CCCCOc2cccc(OCCCC(=O)O)c2CCC(=O)O)cc1 [Example 31, 3-[1-[6-(4-methoxyphenyl)hex-5E-enyl]oxy-3-(3-carboxylpropyl)oxybenzen-2-yl]propionic acid] | – | – |
| 50 | 5400 | COc1ccc(/C=C/CCCCOc2cccc(NC(=O)CCCC(=O)N(C)C)c2CCC(=O)O)cc1 [Example 32, 3-[1-[6-(4-methoxyphenyl)hex-5E-enyl]oxy-3-(4-dimethylaminocarbonylbutanamido)benzen-2-yl]propionic acid] | – | – |
| 15 | – | COc1ccc(/C=C/CCCCOc2cccc(CCCCCC(=O)O)c2CCC(=O)O)cc1 [Example 33, 3-[1-[6-(4-methoxyphenyl)hex-5E-enyl]oxy-3-(5-carboxylpentyl)benzen-2-yl]propionic acid] | – | – |
| 20 | 810 | COc1ccc(/C=C/CCCCOc2cccc(CCCCCC(=O)N(C)C)c2CCC(=O)O)cc1 [Example 34, 3-[1-[6-(4-methoxyphenyl)hex-5E-enyl]oxy-3-(5-dimethylaminocarbonylpentyl)benzen-2-yl]propionic acid] | – | – |
| 200 | – | COc1ccc(/C=C/CCCCOc2cccc(N(S(C)(=O)=O)S(C)(=O)=O)c2CCC(=O)O)cc1 [Example 35, 3-[1-[6-(4-methoxyphenyl)hex-5E-enyl]oxy-3-dimesylaminobenzen-2-yl]propionic acid] | – | – |
| 150 | – | COc1ccc(/C=C/CCCCOc2cccc(N3C(=O)CCCS3(=O)=O)c2CCC(=O)O)cc1 [Example 36, 3-[1-[6-(4-methoxyphenyl)hex-5E-enyl]oxy-3-(perhydro-1,2-thiazin-1,1,3-trione-2-yl)benzen-2-yl]propionic acid] | – | – |
| 6 | 1700 | COc1ccc(/C=C/CCCCOc2cccc(C(=O)CCCCC(=O)O)c2CCC(=O)O)cc1 [Example 37, 3-[1-[6-(4-methoxyphenyl)hex-5E-enyl]oxy-3-(1-oxo-5-carboxylpentyl)benzen-2-yl]propionic acid] | – | – |
| 120 | 4900 | COc1ccc(/C=C/CCCCOc2cccc(C(O)CCCCC(=O)O)c2CCC(=O)O)cc1 (stereo not drawn) [Example 38, 3-[1-[6-(4-methoxyphenyl)hex-5E-enyl]oxy-3-(1-hydroxy-5-carboxylpentyl)benzen-2-yl]propionic acid] | – | – |
| 23 | – | COc1ccc(/C=C/CCCCOc2cccc(C(=O)CCCCC(=O)N(C)C)c2CCC(=O)O)cc1 [Example 39, 3-[1-[6-(4-methoxyphenyl)hex-5E-enyl]oxy-3-(1-oxo-5-dimethylaminocarbonylpentyl)benzen-2-yl]propionic acid] | – | – |
| 170 | – | COc1ccc(/C=C/CCCCOc2cccc(C(O)CCCCC(=O)N(C)C)c2CCC(=O)O)cc1 (stereo not drawn) [Example 40, 3-[1-[6-(4-methoxyphenyl)hex-5E-enyl]oxy-3-(1-hydroxy-5-dimethylaminocarbonylpentyl)benzen-2-yl]propionic acid] | – | – |

| Compound | IC50 (human PMNL LTB4 receptor) [nM] | IC50 (Human PMNLs) [nM] | LD50 ([1]; intravenous administration) [mg/kg] | LD50 ([1]; oral administration) [mg/kg] |
| --- | --- | --- | --- | --- |
| COc1ccc(/C=C/CCCCOc2cccc(OCCCCN3CCCC3=O)c2CCC(=O)O)cc1 [30 (a), 3-[1-[6-(4-methoxyphenyl)hex-5E-enyl]oxy-3-[4-(2-pyrrolidon-1-yl)-n-butoxy]benzen-2-yl]propionic acid] | 70 | 1100 | – | – |
| COc1ccc(/C=C/CCCCOc2cccc(OCCCCC(=O)O)c2CCC(=O)O)cc1 [31 (a), 3-[1-[6-(4-methoxyphenyl)hex-5E-enyl]oxy-3-(4-carboxylbutyl)oxybenzen-2-yl]propionic acid] | – | 1900 | 260 | 2200 |
| COc1ccc(/C=C/CCCCOc2ccc(OCCCCC(=O)O)cc2CCC(=O)O)cc1 [Example 14, 3-[1-[6-(4-methoxyphenyl)hex-5E-enyl]oxy-4-(4-carboxylbutoxy)benzen-2-yl]propionic acid] | 70 | – | – | – |
| COc1ccc(/C=C/CCCCOc2cccc(OCCCCC(=O)N(C)C)c2CCC(=O)O)cc1 [Example 30, 3-[1-[6-(4-methoxyphenyl)hex-5E-enyl]oxy-3-(4-dimethylaminocarbonylbutyl)oxybenzen-2-yl]propionic acid] | 16 | 840 | 175 | 3900 |
